“Also recorded” adds a separate entry of the source.
How the values were obtained:
PC-3CTRwt cells = test: Paracellular permeability (PCP), TRITC-dextran diffusion; type: cell-based
Procedure: For PCP measurements, cells were grown to confluence on Transwell filters. Tetra methyl rhodamine-dextran (1 mg/ml, ˜4 kDa, Sigma) was added to the upper chamber. Fluorescence of the lower chamber medium was measured in Modulus Microplate Reader (Turner Biosystems) at various time intervals.
TJs form a barrier that regulates the movement of ions, solutes and growth factors between cells. To detect whether CT affects the barrier, the diffusion of fluorophore-conjugated dextran was measured across polarized PC cell line monolayers, a procedure called paracellular permeability (PCP). FIG. 2B depicts CTR-C PDZ-binding motif mutation and tight junction (TJ) disruption as measured using PCP. Polarized PC-3V, PC-3-CTRwt and PC-3CTRΔESS cells were treated with or without 50 nM CT, and PCP determined by diffusion of ˜4 kDa TRITC-conjugated dextran from the upper to the lower chamber in one hour. The results are expressed as μg/ml/hour of TRITC-Dextran diffused ±SEM (n=6; *p<0.05 (−CT v +CT, One way ANOVA and Newman-Keul's test)). […]
The effect of CT on TJ functionality was tested by monitoring TER of PC-3CTRwt monolayers. […] TER was measured with EVOM volt-ohm meter. The results are expressed as TER ±SEM (Ωcm^2±SEM; n=6). […] PCP was determined by diffusion of ˜4 kDa TRITC-conjugated dextran from the upper to the lower chamber in one hour. […]

[1] = test system: PC-3M cells expressing ZO-1-wt or its ΔPDZ mutants; test: Transepithelial electric resistance (TER); type: cell-based; settings: CT 50 nM
Procedure: Cells were plated on Transwell filters (0.4 μm pore size) and grown to confluency in complete medium (RPMI1640 containing 10% fetal bovine serum, 20 mM HEPES and antibiotics). TER of the cultures (in duplicate wells) was measured at several time intervals with EVOM volt-ohm meter as previously described (Shah et al, 2009). The readings were corrected for blank (TER values from the filter in bathing medium). The integrity and cell density of monolayers were carefully monitored.
Since ZO-1 contains three PDZ domains, which of these interacts with CTR-C PDZ-binding motif was analyzed. PC-3M cells was used for this study because they are PC-3-derived, but co-express both CT and CTR, and are suitable to examine modulation of CTR action in response to mutations in ZO-1 (Chien et al., 2001). To knock down endogenous ZO-1 expression, PC-3M cells were stably transfected with constitutive ZO-1 shRNA expression vector (pSuper.neo system; shRNA duplex-5′-GACGAGAUAAUCCUCAUUUtt-3′ (SEQ ID NO:8) corresponding to 596-614 bp of ZO-1 mRNA). Since the constitutive presence of ZO-1 siRNA in PC-3M cells could interfere with the re-expression of ZO-1 wt or its ΔPDZ mutants, ZO-1 (wt or ΔPDZ mutants) cDNA expression vectors refractory to ZO-1 RNAi were generated by introducing a silent mutation in RNAi target sequence in the ZO-1 transgene. […]

Substance: calcitonin [CT]
- PCP (PC-3CTRwt cells; 50 nM CT): increased PCP significantly; also recorded: eighty percent
- PCP at multiple CT doses (PC-3CTRwt cells; CT doses of 10 nM or higher): induced an increase
- TER ([1]; cells expressing ZO-1-ΔPDZ3): no decrease in TER
- TER ([1]; cells re-expressing ZO-1-wt, ΔPDZ1 or ΔPDZ2): remarkable decline in TER

Source: patent publication US9765115B2, “Inhibitors of metastasis, methods of generating such inhibitors and their therapeutic applications” (Board of Supervisors of Louisiana State University acting …, priority 2011, dated 2017)
